The molecules below were run against Cdk9/cyclinT1 (Homo sapiens (Human), UniProt P50750) (assay: Cdk9/CyclinT1 IMAP Protocol (fluorescence polarization kinase assay)). Settings: Table 2; generated using one of the two Cdk9/cyclinT1 assays (IMAP or Alpha Screen), not specified which; unit inferred.
Assay type: biochemical
Procedure, shortened: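 Reaction used 4 nM Cdk9/cyclinT1, 100 nM 5TAMRA-cdk7tide peptide and 6 uM ATP in 100 mM Tris pH 7.2 with MgCl2, 0.01% Tween-20, 1 mM DTT and 2.5% DMSO, running 4.5 h. Phosphopeptide was captured by IMAP binding reagent for >1 h, then read by fluorescence polarization (ex 531/em 595 nm).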

Sequence of Cdk9/cyclinT1 (P50750 whole entry): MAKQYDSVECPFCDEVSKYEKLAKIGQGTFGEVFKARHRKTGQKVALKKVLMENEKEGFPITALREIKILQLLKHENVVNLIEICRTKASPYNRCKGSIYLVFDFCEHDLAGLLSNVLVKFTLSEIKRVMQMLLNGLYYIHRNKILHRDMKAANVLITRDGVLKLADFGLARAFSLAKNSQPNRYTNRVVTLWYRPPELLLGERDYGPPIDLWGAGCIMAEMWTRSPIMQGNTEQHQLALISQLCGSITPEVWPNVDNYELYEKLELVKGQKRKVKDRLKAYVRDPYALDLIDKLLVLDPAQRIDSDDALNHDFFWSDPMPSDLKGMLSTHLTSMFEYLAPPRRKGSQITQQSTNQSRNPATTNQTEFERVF
Sequence of Cdk9/cyclinT1 (O60563 whole entry partner): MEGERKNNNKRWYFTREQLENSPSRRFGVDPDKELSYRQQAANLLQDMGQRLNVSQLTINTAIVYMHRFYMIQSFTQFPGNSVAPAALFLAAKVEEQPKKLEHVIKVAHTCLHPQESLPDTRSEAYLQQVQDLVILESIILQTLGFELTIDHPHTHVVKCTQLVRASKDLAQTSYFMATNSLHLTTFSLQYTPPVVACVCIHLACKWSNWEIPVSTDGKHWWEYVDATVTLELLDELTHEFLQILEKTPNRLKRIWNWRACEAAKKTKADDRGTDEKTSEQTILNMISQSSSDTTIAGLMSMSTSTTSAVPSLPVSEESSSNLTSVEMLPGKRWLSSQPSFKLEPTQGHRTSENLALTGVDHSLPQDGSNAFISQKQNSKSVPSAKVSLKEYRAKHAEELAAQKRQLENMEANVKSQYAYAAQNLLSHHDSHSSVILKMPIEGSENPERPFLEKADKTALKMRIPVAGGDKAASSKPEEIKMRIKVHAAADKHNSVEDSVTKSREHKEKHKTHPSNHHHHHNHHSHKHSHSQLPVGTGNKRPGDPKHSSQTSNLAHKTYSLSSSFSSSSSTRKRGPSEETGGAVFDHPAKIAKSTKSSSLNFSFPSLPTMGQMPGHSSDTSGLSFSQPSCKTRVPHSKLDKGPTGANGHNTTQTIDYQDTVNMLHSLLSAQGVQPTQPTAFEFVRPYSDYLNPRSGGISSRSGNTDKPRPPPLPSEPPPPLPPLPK

IC50 | Compound
0.17 nM | COC[C@@H](C)N[C@H]1CC[C@H](Nc2cc(-c3cccc(NCC4(C#N)CCOCC4)n3)c(Cl)cn2)CC1 [Compound 358, 4-((5′-chloro-2′-((1R,4r)-4-((R)-1-methoxypropan-2-ylamino)cyclohexylamino)-2,4′-bipyridin-6-ylamino)methyl)tetrahydro-2H-pyran-4-carbonitrile]
7.95 nM | N[C@H]1CC[C@H](Nc2cc(-c3ccc(F)c(NCC4CCOCC4)n3)c(Cl)cn2)CC1 [Compound 269, N2′-(trans-4-aminocyclohexyl)-5′-chloro-5-fluoro-N6-((tetrahydro-2H-pyran-4-yl)methyl)-2,4′-bipyridine-2′,6-diamine]
7.94 nM | OCCN[C@H]1CC[C@H](Nc2cc(-c3nc(NCC4CCOCC4)ccc3Cl)c(Cl)cn2)CC1 [Compound 259, 2-(trans-4-(3,5′-dichloro-6-((tetrahydro-2H-pyran-4-yl)methyl)amino-2,4′-bipyridin-2′-yl-amino)cyclohexylamino)ethanol]
7.95 nM | N#Cc1ccc(-c2cc(N[C@H]3CC[C@H](N)CC3)ncc2Cl)nc1NCc1cccc(F)c1 [Compound 13, 2′-((1r,4r)-4-amonocyclohexylamino)-5′-chloro-6-(3-fluorobenzylamino)-2,4′-bipyridine-5-carbonitrile]
7.95 nM | Fc1cc(F)cc(CNc2cccc(-c3cc(N[C@H]4CC[C@H](N5CCCC5)CC4)ncc3Cl)n2)c1 [Compound 23, 5′-chloro-N6-(3,5-difluorobenzyl)-N2′-(trans-4-(pyrrolidin-1-yl)cyclohexyl)-2,4′-bipyridine-2′,6-diamine]
1 nM | COC[C@@H](C)N[C@H]1CC[C@H](Nc2cc(-c3nc(NCC4CCOCC4)ccc3F)c(Cl)cn2)CC1 [Compound 293]
14.2 nM | O=C([C@H]1CC[C@@H](Nc2cc(-c3cccc(NCc4cccc(F)c4)n3)c(Cl)cn2)C1)N1CCCC1 [Compound 213]
7.95 nM | N[C@H]1CC[C@H](Nc2cc(-c3cccc(NCc4ccc(Cl)cc4)n3)c(Cl)cn2)CC1 [Compound 55]
7.94 nM | O[C@H]1CC[C@H](Nc2cc(-c3cncc(NC[C@@H]4CCCOC4)n3)c(Cl)cn2)CC1 [Compound 264]
928 nM | Clc1cnc(N[C@@H]2CCCNC2)cc1-c1cccc(NCc2ccncc2)n1 [Compound 93]
22.9 nM | Clc1ccc(NCC2CCOCC2)nc1-c1ccnc(N[C@H]2CC[C@H](NC[C@H]3CCCO3)CC2)c1 [Compound 273]
39.3 nM | NC[C@H]1CC[C@H](Nc2cc(-c3cccc(NCC4CCCCC4)n3)c(Cl)cn2)CC1 [Compound 56]
1 nM | COC[C@@H](C)N[C@H]1CC[C@H](Nc2cc(-c3cccc(NCC4(OC)CCOCC4)n3)c(Cl)cn2)CC1 [Compound 305]
3 nM | FC(F)(F)OCCN[C@H]1CC[C@H](Nc2cc(-c3cccc(NCC4CCOCC4)n3)c(Cl)cn2)CC1 [Compound 301, 5′-chloro-N6-((tetrahydro-2H-pyran-4-yl)methyl)-N2′-(trans-4-(2-(trifluoromethoxy)ethylamino)cyclohexyl)-2,4′-bipyridine-2′,6-diamine]
27.3 nM | Fc1cccc(CNc2cccc(-c3cc(N[C@H]4CC[C@H](CN5CCCC5)CC4)ncc3Cl)n2)c1 [Compound 112]
55.8 nM | N[C@H]1CC[C@H](Nc2ncc(Cl)c(-c3cccc(NCc4ccncc4)n3)n2)CC1 [Compound 35]
2550 nM | CC(C)(C)OC(=O)N1CCC(Nc2cc(-c3cccc(NCc4cccc(F)c4)n3)c(Cl)cn2)CC1 [Compound 67]
24.2 nM | CCS(=O)(=O)N[C@H]1CC[C@H](Nc2cc(-c3cccc(NCc4cccc(F)c4)n3)c(Cl)cn2)CC1 [Compound 78]
10500 nM | O[C@H]1CC[C@H](Nc2cc(-c3cccc(NC[C@H]4CCCNC4)n3)c(Cl)cn2)CC1 [Compound 121]
13 nM | CN1CCC(CNc2cc(-c3cccc(NCc4cccc(F)c4)n3)c(Cl)cn2)CC1 [Compound 163]
18 nM | Fc1cccc(CNc2cccc(-c3cc(NCC[C@@H]4CCCNC4)ncc3Cl)n2)c1 [Compound 167]
10.6 nM | CN(CC1CCOCC1)c1cncc(-c2cc(N[C@H]3CC[C@H](N)CC3)ncc2Cl)n1 [Compound 248]
7.95 nM | N[C@H]1CC[C@H](Nc2cc(-c3cccc(NCc4cccc(Cl)c4)n3)c(Cl)cn2)CC1 [Compound 37]

IC50 | Compound
7.95 nM | Cc1ncc(NCC2CCOCC2)nc1-c1cc(N[C@H]2CC[C@H](N)CC2)ncc1Cl [Compound 233, trans-N1-(5-chloro-4-(3-methyl-6-((tetrahydro-2H-pyran-4-yl)methyl)aminopyrazin-2-yl)pyridin-2-yl)cyclohexane-1,4-diamine]
25.9 nM | Nc1ncc(-c2cc(N[C@H]3CC[C@H](O)CC3)ncc2Cl)nc1NCC1CCOCC1 [Compound 227]
7.95 nM | O[C@H]1CC[C@H](Nc2cc(-c3cccc(NCc4cc(F)cc(F)c4)n3)c(Cl)cn2)CC1 [Compound 133]
1 nM | COC[C@@H](C)N[C@H]1CC[C@H](Nc2cc(-c3cccc(NCC4(CO)CCOCC4)n3)c(Cl)cn2)CC1 [Compound 349, (4-((5′-chloro-2′-(trans-4-((R)-1-methoxypropan-2-ylamino)cyclohexylamino)-2,4′-bipyridin-6-ylamino)methyl)tetrahydro-2H-pyran-4-yl)methanol]
7.94 nM | N[C@H]1CC[C@H](Nc2cc(-c3cncc(NCC4CCOCC4)n3)c(Cl)cn2)CC1 [Compound 203, trans-N1-(5-chloro-4-(6-((tetrahydro-2H-pyran-4-yl)methyl)aminopyrazin-2-yl)pyridin-2-yl)cyclohexane-1,4-diamine]
15 nM | CC(C)Nc1cc(-c2cccc(NCc3cccc(F)c3)n2)c(Cl)cn1 [Compound 172]
339 nM | Fc1cccc(CNc2cccc(-c3cc(N[C@H]4CCCNC4)ncc3Cl)n2)c1 [Compound 97]
0.3 nM | COC[C@@H](C)N[C@H]1CC[C@H](Nc2cc(-c3cccc(NCC4(C#N)CCOCC4)n3)c(Cl)cn2)CC1 [Compound 310, 4-((5′-chloro-2′-(trans-4-((R)-1-methoxypropan-2-yl-amino)cyclohexylamino)-2,4′-bipyridin-6-ylamino)methyl)tetrahydro-2H-pyran-4-carbonitrile]
219 nM | Clc1cnc(NC[C@@H]2CCCNC2)cc1-c1cccc(NCC2CCOCC2)n1 [Compound 300]
23.2 nM | N[C@H]1CC[C@H](Nc2cc(-c3cc(C(=O)O)cc(NCc4cccc(F)c4)n3)c(Cl)cn2)CC1 [Compound 17, 2′-(trans-4-aminocyclohexylamino)-5′-chloro-6-(3-fluorobenzylamino)-2,4′-bipyridine-4-carboxylic acid]
91.9 nM | NC(=O)c1ncc(-c2cc(N[C@H]3CC[C@H](N)CC3)ncc2Cl)nc1NCC1CCOCC1 [Compound 224, 5-(2-(trans-4-aminocyclohexylamino)-5-chloropyridin-4-yl)-3-((tetrahydro-2H-pyran-4-yl)methyl)aminopyrazine-2-carboxamide]
8.33 nM | CS(=O)(=O)CCN[C@H]1CC[C@H](Nc2cc(-c3nc(NCC4CCOCC4)ccc3Cl)c(Cl)cn2)CC1 [Compound 254, 3,5′-dichloro-N2′-(trans-4-(2-(methylsulfonyl)ethylamino)cyclohexyl)-N6-((tetrahydro-2H-pyran-4-yl)methyl)-2,4′-bipyridine-2′,6-diamine]
30.1 nM | N[C@H]1CC[C@@H](Nc2cc(-c3cccc(NCc4cccc(F)c4)n3)c(Cl)cn2)CC1 [Compound 139]
7.94 nM | N[C@H]1CC[C@H](Nc2cc(-c3nc(NCC4CCOCC4)ccc3Cl)c(Cl)cn2)CC1 [Compound 253, N2′-(trans-4-aminocyclohexyl)-3,5′-dichloro-N6-((tetrahydro-2H-pyran-4-yl)methyl)-2,4′-bipyridine-2′,6-diamine]
0.49 nM | CS(=O)(=O)CCN[C@H]1CC[C@H](Nc2cc(-c3ccc(F)c(NCC4CCOCC4)n3)c(Cl)cn2)CC1 [Compound 326]
0.3 nM | CC1(CNc2nc(-c3cc(N[C@H]4CC[C@H](N)CC4)ncc3Cl)ccc2F)CCOCC1 [Compound 312, N2′-(trans-4-aminocyclohexyl)-5′-chloro-5-fluoro-N6-((4-methyltetrahydro-2H-pyran-4-yl)methyl)-2,4′-bipyridine-2′,6-diamine]
48.1 nM | CO[C@H]1CC[C@H](Nc2cc(-c3cccc(NCc4cccc(F)c4)n3)c(Cl)cn2)CC1 [Compound 194]
7.94 nM | COCCN[C@H]1CC[C@H](Nc2cc(-c3cncc(N(C)CC4CCOCC4)n3)c(Cl)cn2)CC1 [Compound 252]
68.5 nM | CN(C)CC(=O)N1CCC(Nc2cc(-c3cccc(NCc4cccc(F)c4)n3)c(Cl)cn2)CC1 [Compound 85]
39 nM | Fc1cccc(CNc2cccc(-c3cc(NC[C@H]4CCCNC4)ncc3Cl)n2)c1 [Compound 164]
48.3 nM | N[C@H]1CC[C@H](Nc2ncc(Cl)c(-c3cccc(NCc4cccc(F)c4)n3)n2)CC1 [Compound 34]
1 nM | COC[C@@H](C)N[C@H]1CC[C@H](Nc2cc(-c3ccc(F)c(NCC4CCOCC4)n3)c(Cl)cn2)CC1 [Compound 294]

Compound | IC50
CN(C)CC(=O)N[C@H]1CC[C@H](Nc2cc(-c3cccc(NCc4cccc(F)c4)n3)c(Cl)cn2)CC1 [Compound 7, N-(trans-4-(5′-chloro-6-(3-fluorobenzylamino)-2,4′-bipyridin-2′-yl-amino)cyclohexyl)-2-(dimethylamino)acetamide] | 24.8 nM
NC[C@H]1CC[C@H](Nc2cc(-c3cccc(NCc4cccc(F)c4)n3)c(Cl)cn2)CC1 [Compound 4, N2′-(trans-4-(aminomethyl)cyclohexyl)-5′-chloro-N6-(3-fluorobenzyl)-2,4′-bipyridine-2′,6-diamine] | 9.05 nM
N[C@H]1CC[C@H](Nc2cc(-c3cccc(NCc4ccccc4Cl)n3)c(Cl)cn2)CC1 [Compound 42] | 48.1 nM
N[C@H]1CC[C@H](Nc2cc(-c3cccc(NCc4cccc(OC(F)F)c4)n3)c(Cl)cn2)CC1 [Compound 36] | 8.91 nM
N[C@H]1CC[C@H](Nc2cc(-c3cccc(NCc4cc(F)ccc4F)n3)c(Cl)cn2)CC1 [Compound 39] | 8.9 nM

From US8778951B2, “Heteroaryl compounds and their uses” (Novartis AG, priority 2009, dated 2014)
